One data set deals with Foxp3 in iTreg cells. As to the kind of experiment: In vitro dose response and mechanism study in WT, Usp22-null and Usp21-null Treg cells. In kind it is cell-based, murine. On the procedure: (§1) FIG. 15: Usp22i-S02 halts Usp22-mediated Foxp3 deubiquitination. A, Graphical representation of Foxp3 MFI change in WT versus 22KO iTreg cells treated with various doses of Usp22i-S02 (n=3). B, Representative histogram of Foxp3 MFI level in iTreg cells as Usp22 inhibitor concentration increases from 0-20 μg/mL. C, Cell survival of iTreg cells treated with various doses of Usp22i-S02 (n=3). D, FOXP3 and USP22 protein level in WT and 22KO mice treated with 10 μg/mL Usp22i-S02. E-F, Graphical and representative data of Foxp3 MFI of human Treg cells treated with various doses of Usp22i-S02 (n=3). G, Graphical representation of Foxp3 MFI in WT, Usp21-null, and Usp22-null Treg cells treated with Usp22i-S02 at 10 μg/mL (n=3). H, FOXP3 and USP22 protein degradation of cycloheximide (10 μg/mL) treated iTreg cells with or without the addition of 10 μg/mL of Usp22i-S02. I-J, Endogenous DUB assay IP in iTreg cells of USP22 with FOXP3 under increasing concentrations of Usp22i-S02. K, Foxp3 mRNA level in iTreg cells as Usp22 inhibitor concentration increases from 0-20 μg/mL (n=3). L, FOXP3 and USP22 level in WT iTreg cells with or without 20 μg/mL Usp22 inhibitor treated with 20 μM MG132. M, Graphical representation of the percentage of decrease of Foxp3 MFI in either WT or Usp22-null nTreg cells placed in low glucose conditions with or without the addition of 10 μg/mL of Usp22i-S02 (n=7-8). N, Graphical representation of the percentage of decrease of Foxp3 MFI in WT nTreg cells placed in hypoxic or low amino acid conditions with or without the addition of 10 μg/mL of Usp22i-S02 (n=3-5). G, Two-tailed unpaired t-test comparing within groups was performed to determine statistical significance. K, One-way ANOVA with Dunnet's multiple comparisons between rows relative to control was performed to determine statistical significance. M-N, Two-way ANOVA with Sidak's multiple comparisons between rows was performed to determine statistical significance. All data are presented as mean±stdev. NS, not significant. *P<0.05, **P<0.01, ***P<0.001, ****P<0.0001.
After initial screening, we ran an in vitro dose response study on compound S02, now dubbed Usp22i-S02, in both WT and Usp22-null iTreg cells (FIG. 15A-C).
All nTreg and iTreg cells were plated as described above DMOG (Sigma Catalog #D3695) was administered to the cells in relevant experiments at 1 mM for 24 hours. Oligomycin (Sigma Catalog #75351) was administered at 1 μM to the media of the cells in relevant experiments for 24 hours. Torin 1 (Millipore Catalog #475991) was administered to the relevant cells at 250 nM for 24 hours. FOXP3 protein level was assessed via flow cytometry following […] of treatment of inhibitors described above. In vitro administration of Usp22i-S02 was at 10 ug/mL.

The subject of data set [1] is Foxp3 in human Treg cells. Nature of the data set: Foxp3 MFI of human Treg cells treated with Usp22i-S02. The note with it: low doses. In kind it is cell-based. On the procedure: as §1, with “N, Graphical representation of the percentage of decrease of Foxp3 MFI in WT nTreg cells placed in hypoxic or low amino acid conditions with or without the addition of 10 μg/mL of Usp22i-S02 (n=3-5). G, Two-tailed unpaired t-test comparing within groups was performed to determine statistical significance. K, One-way ANOVA with Dunnet's multiple comparisons between rows relative to control was performed to determine statistical significance. M-N, Two-way ANOVA with Sidak's multiple comparisons between rows was performed to determine statistical significance. All data are presented as mean±stdev. NS, not significant. *P<0.05, **P<0.01, ***P<0.001, ****P<0.0001.” left out

The subject of another data set is naïve mice. Nature of the data set: In vivo toxicity and Treg phenotype in naïve mice. The method, then:
D, Graphical representation of Foxp3 MFI upon Usp22i-S02 administration (n=5). E, Tumor growth curve of LLC1 cells subcutaneously injected in the flank of WT mice with or without the addition of 20 mg/kg/time of the Usp22 inhibitor starting at day 15, in 100 μL of oil (n=4). F-G, Representative flow cytometry plot and graphical representation of % infiltration of CD4+ and CD8+ T cells within the tumor (n=4). […] I, MFI of itTreg suppressive markers (n=3-4). […] B, D-E, G, H-I Two-way ANOVA with multiple comparisons between rows was performed to determine statistical significance. J, Unpaired two tailed T test was performed to determine significance. All data are presented as mean±stdev. NS, not significant. *P<0.05, **P<0.01, ***P<0.001, ****P<0.0001.
A, Body weight of Usp22i-S02 treated mice verses DMSO treated controls over the course of treatment (n=4). […] B, Percent of cell populations in naïve mice treated with Usp22i-S02 relative to DMSO control (n=3-4). […] E, Percent Annexin+PI+ T cells gates on CD45+ cells in naïve mice treated with Usp22i-S02 relative to DMSO control (n=4). F-H, Organ toxicity panel (VetScan VS2 Comprehensive Diagnostic Rotor lot 1061AA2) of naïve mice treated with Usp22i-S02 relative to DMSO control (n=2-3). […] J, Weights of resected tumors at day 16 from I (n=10). K-L, Representative flow plot and graphical representation of infiltrating T cells gated on CD45+ cells (n=5). […] Q, Percent of intratumoral Treg cells from mice treated with Usp22i-S02 verses DMSO control, gated on CD4+Foxp3+ from mice (n=5). A-E, I and L, Two-way ANOVA with Sidaks's multiple comparisons between rows relative to control was performed to determine statistical significance. F-H, J, and M-Q, Two-tailed unpaired t-test was performed to determine statistical significance. All data are presented as mean±stdev. NS, not significant. *P<0.05, **P<0.01, ***P<0.001, ****P<0.0001.
An important aspect of a potential immunotherapeutic is its antitumor functionality paired with low immune toxicity. To determine the toxicity of Usp22i-S02 in vivo, we first determined its effects in naïve mice.

As for `N#Cc1c2c(c(Nc3ccccc3)n3c1nc1ccccc13)CCCC2` [Chemical S02, 11-anilino-7,8,9,10-tetrahydro-benzimidazo [1,2-b] isoquinoline-6-carbonitrile], the “viability of iTreg cells” value in the data set with Foxp3 in iTreg cells (10 μg/mL) is reported as “little effect on viability”. The “effect on Foxp3 in iTreg cells lacking Usp21” value in the data set with Foxp3 in iTreg cells (Usp21-null iTreg cells, 10 μg/mL) is reported as “full effect”. Besides, the “Foxp3 MFI and protein level” value in the data set on Foxp3 in iTreg cells (WT iTreg cells, 10 μg/mL) was “decreases in Foxp3 MFI and protein level comparable to Usp22-null iTreg cells”. For the same compound, in the data set with Foxp3 in iTreg cells (WT nTreg cells, low glucose, 10 μg/mL), the “Foxp3 stability under glucose starvation” value is given as “significantly diminished Foxp3 stability”. Also, the FOXP3 degradation result in the data set on Foxp3 in iTreg cells (cycloheximide (CHX) treated iTreg cells) is “enhanced FOXP3 degradation”. Further, the Foxp3 transcription entry in the data set on Foxp3 in iTreg cells (iTreg cells, Foxp3 mRNA, 0-20 μg/mL) was “decreased Foxp3 transcription”. Moreover, the FOXP3 ubiquitination result in the data set with Foxp3 in iTreg cells (iTreg cells, endogenous DUB assay IP) is listed as “increased FOXP3 ubiquitination”. In addition, the “FOXP3 levels in Treg cells lacking Usp22” value with Foxp3 in iTreg cells (murine Treg cells lacking Usp22, in vivo and in vitro) was “minimal effect on FOXP3 levels”. Further, in data set [1], the “Foxp3 MFI” value was “significantly decreased Foxp3 MFI” and the cell viability entry is “little effect to cell viability”. Also, in the data set on naïve mice (WT mice, 20 mg/kg in vivo), the “FOXP3 MFI in Treg cells from the spleen and lymph nodes” value was “significant drop in FOXP3 MFI”. In addition, the Treg cell death entry in the data set on naïve mice (naïve mice vs DMSO control) is “significantly increased”. For the same compound, the “organ toxicity (comprehensive tissue panel)” value in the data set with naïve mice (naïve mice vs DMSO-treated control) is on record as “no organ toxicity differences”. Moreover, the “weights, B cell and Teff cell percentages and proliferation, Teff cell activation” value with naïve mice (naïve mice vs DMSO-treated control, 10 mg/kg twice a day for 3 days) was “little alteration”.

(Values after patent US20240238274A1, “INHIBITORS OF UBIQUITIN SPECIFIC PEPTIDASE 22 (USP22) AND USES THEREOF FOR TREATING DISEASE AND DISORDERS” (Northwestern University, priority 2021, published 2024).)
